Our source for the IC50 values is patent US9073929B2, “Aldosterone synthase inhibitors” (ElexoPharm GmbH, priority 2011, dated 2015).

Holding throughout (assay type): cell-based
Assay [1] concerns the target T1, human CYP11B2 (Homo sapiens, UniProt P19099).
T1 construct: expressed in transfected cells; host or cells: V79 cells (clone V79-hCYP11B2-CLE9)
T1 sequence (P19099 25-503): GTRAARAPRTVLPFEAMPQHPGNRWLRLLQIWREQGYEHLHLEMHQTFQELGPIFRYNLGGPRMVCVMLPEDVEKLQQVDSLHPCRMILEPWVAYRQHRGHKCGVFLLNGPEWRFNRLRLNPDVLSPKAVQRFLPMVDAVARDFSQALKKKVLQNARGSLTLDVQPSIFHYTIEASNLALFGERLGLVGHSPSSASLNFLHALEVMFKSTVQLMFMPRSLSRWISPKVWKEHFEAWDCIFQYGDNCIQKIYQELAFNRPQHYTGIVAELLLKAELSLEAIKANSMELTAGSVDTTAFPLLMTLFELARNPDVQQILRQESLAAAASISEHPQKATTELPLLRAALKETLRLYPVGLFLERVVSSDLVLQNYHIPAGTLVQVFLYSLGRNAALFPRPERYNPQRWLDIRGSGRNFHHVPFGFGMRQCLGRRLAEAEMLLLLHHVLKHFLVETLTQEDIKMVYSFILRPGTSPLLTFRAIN
In words: V79-Human-CYP11B2 cell assay, modified protocol (600,000 cells/mL). The following applies: 0.30 μl inhibitor. On the procedure: (§1) V79 cell lines stably expressing the either the human CYP11B2 or the human CYP11B1 enzyme were generated using a standard transfection protocol. V79 cells were transfected with plasmids pTriEx3-Hygro-hCyp11B2 or pTriEx3-Hygro-hCyp11B1 using Lipofectamine2000 reagent. V79 cells that stably express the human CYP11B2 or human CYP11B1 enzyme were selected for and maintained in DMEM supplemented with 10% FBS and 400 μg/mL hygromycin for ˜2 weeks. Single cell clones were generated by infinite dilution in DMEM supplemented with 10% FBS and 400 μg/mL hygromycin until single colonies were obtained. […] For testing of inhibitors, cells were harvested at 80% confluency with 0.5% Trypsan-EDTA, washed once in PBS, and reconstituted in DMEM+0.1% BSA media at a cell concentration of 400,000 cells/mL. 25 μl of cells were added to a 384 well tissue culture treated plate and mixed with 0.25 μl of inhibitor or DMSO (1% final DMSO concentration) for 1 hour at 37° C., 5% CO2. After pre-incubation with inhibitor, the reaction was initiated by adding 5 μl of substrate (final concentration of 125 nM 11-deoxycorticosterone for the CYP11B2 assay or 250 nM 11-deoxycortisol for the CYP11B1 assay). The reaction was carried out for 3 hours at 37° C., 5% CO2 and was stopped by harvesting the supernatants. The amount of product in the supernatant (aldosterone for CYP11B2 assay and cortisol for the CYP11B1 assay) was measured using HTRF-based assay kit (Aldosterone HTRF-CisBio#64ALDPEB, Cortisol HTRF-CisBio #631DC002-CORT). IC50's for the inhibitor were determined by plotting the amount of product formed against the concentration of inhibitor using sigmoidal dose-response curve (variable slope) fit in GraphPad.
(§2) For the CYP11B2 assay, cells were reconstituted in DMEM+0.1% BSA media at a cell concentration of 600,000 cells/mL and for the CYP11B1 assay cells were reconstituted in DMEM+0.1% BSA media at a cell concentration of 280,000 cells/mL. 25 μl of cells were added to a 384 well tissue culture treated plate and mixed with 0.30 μl of inhibitor or DMSO (1% final DMSO concentration) for 1 hour at 37° C., 5% CO2.

In assay [2] the target is T2, human CYP11B1 (Homo sapiens, UniProt P15538).
T2 construct: expressed in transfected cells; host or cells: V79MZh11B1 cells
T2 sequence (P15538 25-503): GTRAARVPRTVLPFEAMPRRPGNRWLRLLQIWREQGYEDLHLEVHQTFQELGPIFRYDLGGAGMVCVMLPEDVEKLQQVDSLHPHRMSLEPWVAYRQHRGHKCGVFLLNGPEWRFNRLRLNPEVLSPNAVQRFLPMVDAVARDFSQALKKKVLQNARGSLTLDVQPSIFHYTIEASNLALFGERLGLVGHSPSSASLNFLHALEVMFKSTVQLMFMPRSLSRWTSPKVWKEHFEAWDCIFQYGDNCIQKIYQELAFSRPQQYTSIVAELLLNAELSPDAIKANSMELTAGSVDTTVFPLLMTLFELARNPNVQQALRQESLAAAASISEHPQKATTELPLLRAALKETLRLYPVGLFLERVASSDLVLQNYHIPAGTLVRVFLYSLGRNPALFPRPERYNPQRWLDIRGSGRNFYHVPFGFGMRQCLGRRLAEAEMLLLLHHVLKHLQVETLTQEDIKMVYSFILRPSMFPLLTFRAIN
The assay can be described thus: V79-Human-CYP11B1 cell assay, modified protocol (280,000 cells/mL). The following applies: 0.30 μl inhibitor. The protocol:
as §1, §2

Assay [3] concerns the target T1, human CYP11B2. In words: V79MZh11B2 cell assay, [3H]-deoxycorticosterone, HPLC radioflow detection. Conditions: V79MZh11B2 cells, 100 nM deoxycorticosterone, 50 min, read-out: V79 Human CYP11B2 IC50. The protocol:
(§3) Compounds of the Examples 157-170 were assayed for V79-Human-CYP11B2 and V79-Human-CYP11B1 by modifying the protocol described in J. Steroid Biochem. Mol. Biol. 81; 173-179 (2002). V79MZh11B1 and V79MZh11B2 cells (8×10^5 cells/well) were grown on 24-well culture plates until confluence. Before testing, the DMEM culture medium was removed and 450 μl of fresh DMEM containing the inhibitor was added to each well. After a preincubation step of 60 min at 37° C., the reaction was started by the addition of 50 μl of DMEM in which the substrate deoxycorticosterone (containing 0.15 μCi of [1,2-3H]-deoxycorticosterone in ethanol, final test concentration 100 nM) was dissolved. Incubation times were 25 min for V79MZh11B1 and 50 min for V79MZh11B2 cells at 37° C., respectively. The enzyme reactions were stopped by extracting the supernatant with ethyl acetate. Samples were centrifuged (10.000 g, 5 min) and the solvent was pipetted into fresh cups. After evaporation of the solvent, the steroids were redissolved in 40 μl of […] and analyzed by HPLC. Detection and quantification of the steroids were performed using a radioflow detector. […] The inhibitor concentrations were all in the linear range of the dose-response-curves, so that the coefficients of correlation were at least 0.95 for each determination. The final IC50 value was estimated as the average of three or four independent IC50 values and a selectivity factor corresponding to the ratio between the IC50 values of CYP11B1 and CYP11B2 was calculated for each substance.

Assay [4] concerns the target T2, human CYP11B1. The assay can be described thus: V79MZh11B1 cell assay, [3H]-deoxycorticosterone, HPLC radioflow detection. The following applies: V79MZh11B1 cells, 100 nM deoxycorticosterone, 25 min, read-out: V79 Human CYP11B1 IC50. On the procedure:
as §3

Take `Cc1nnc2n1-c1cc(Cl)c(-c3cncc4ccccc34)cc1CC2` [Example 113, 8-chloro-7-(isoquinolin-4-yl)-1-methyl-4,5-dihydro-[1,2,4]triazolo[4,3-a]quinoline]: the IC50 (usually the concentration that inhibits the measured activity by half) was 17 nM at human CYP11B2 [1] and over 10000 nM at human CYP11B1 [2].

With `Cc1nnc2n1-c1c(F)cc(-c3cncc(F)c3)cc1CC2` [Example 157, 9-fluoro-7-(5-fluoro-pyridin-3-yl)-1-methyl-4,5-dihydro-[1,2,4]triazolo[4,3-a]quinoline], the IC50 worked out at 89.7 nM at human CYP11B2 [3] and 29500 nM at human CYP11B1 [4].

Consider `Cc1nnc2n1-c1c(F)cc(-c3cncc(-c4ccccc4)c3)cc1CC2` [Example 162, 9-fluoro-1-methyl-7-(5-phenyl-pyridin-3-yl)-4,5-dihydro-[1,2,4]triazolo[4,3-a]quinoline], for which the IC50 at human CYP11B2 [3] came out at 7.1 nM; on human CYP11B1 [4], 428 nM.

In the case of `CC(=O)c1cncc(-c2cc(F)c3c(c2)CCc2nnc(C)n2-3)c1` [Example 160, 1-[5-(9-fluoro-1-methyl-4,5-dihydro-[1,2,4]triazolo[4,3-a]quinolin-7-yl)-pyridin-3-yl]-ethanone], the IC50 on human CYP11B2 [3] is 87.6 nM; on human CYP11B1 [4], 6970 nM.

As for `Fc1cc2c(cc1-c1cccnc1)CCc1nncn1-2` [Example 168, 8-fluoro-7-pyridin-3-yl-4,5-dihydro-[1,2,4]triazolo[4,3-a]quinoline], the IC50 came to 244 nM on human CYP11B2 [3] and 7900 nM at human CYP11B1 [4].

For `Cc1nnc2n1-c1cc(F)c(-c3cccnc3)cc1CC2` [Example 167, 8-fluoro-1-methyl-7-pyridin-3-yl-4,5-dihydro-[1,2,4]triazolo[4,3-a]quinoline], the IC50 on human CYP11B2 [3] came out at 131 nM; at human CYP11B1 [4] it was 12600 nM.

On to `CCc1c(F)cncc1-c1cc(F)c2c(c1)CCc1nnc(C)n1-2` [Example 169, 7-(4-ethyl-5-fluoropyridin-3-yl)-9-fluoro-1-methyl-4,5-dihydro-[1,2,4]triazolo[4,3-a]quinoline], for which the IC50 stood at 11 nM on human CYP11B2 [3] and 3070 nM on human CYP11B1 [4].

As to `Cc1nnc2n1-c1c(F)cc(-c3cncc(C(C)O)c3)cc1CC2` (centres unmarked) [Example 159, 1-[5-(9-fluoro-1-methyl-4,5-dihydro-[1,2,4]triazolo[4,3-a]quinolin-7-yl)-pyridin-3-yl]-ethanol], the IC50 at human CYP11B2 [3] turned out to be 28.3 nM; at human CYP11B1 [4], 3910 nM.

As to `Cc1nnc2n1-c1c(F)cc(-c3cccnc3)cc1CC2` [Example 165, 9-fluoro-1-methyl-7-pyridin-3-yl-4,5-dihydro-[1,2,4]triazolo[4,3-a]quinoline], the IC50 at human CYP11B2 [3] was 62.5 nM; at human CYP11B1 [4], 17000 nM.

For the compound `Cc1ccncc1-c1cc(F)c2c(c1)CCc1nnc(C)n1-2` [Example 163, 9-fluoro-1-methyl-7-(4-methyl-pyridin-3-yl)-4,5-dihydro-[1,2,4]triazolo[4,3-a]quinoline], the IC50 was 4.2 nM on human CYP11B2 [3] and 1770 nM at human CYP11B1 [4].

Consider `Fc1cc(-c2cccnc2)cc2c1-n1cnnc1CC2` [Example 166, 9-fluoro-7-pyridin-3-yl-4,5-dihydro-[1,2,4]triazolo[4,3-a]quinoline], for which the results for the IC50 at human CYP11B2 [3] and at human CYP11B1 [4] were 172 nM and 16100 nM, respectively.

Take `COc1c(C)cncc1-c1cc2c(cc1F)-n1c(C)nnc1CC2` [Example 122, 8-fluoro-7-(4-methoxy-5-methylpyridin-3-yl)-1-methyl-4,5-dihydro-[1,2,4]triazolo[4,3-a]quinoline]: the figures for the IC50 at human CYP11B2 [1] and against human CYP11B1 [2] were 32 nM and over 10000 nM, respectively.

Take `Cc1nnc2n1-c1c(F)cc(-c3cncc4ccccc34)cc1CC2` [Example 164, 9-fluoro-7-isoquinolin-4-yl-1-methyl-4,5-dihydro-[1,2,4]triazolo[4,3-a]quinoline]: the IC50 was determined as 2.2 nM on human CYP11B2 [3] and 110 nM on human CYP11B1 [4].

As for `Cc1nnc2n1-c1c(Cl)cc(-c3cnccc3C3CC3)cc1CC2` [Example 96, 9-chloro-7-(4-cyclopropylpyridin-3-yl)-1-methyl-4,5-dihydro-[1,2,4]triazolo[4,3-a]quinoline], the IC50 against human CYP11B2 [1] amounted to 48 nM; at human CYP11B1 [2] it was 6930 nM.

For the compound `Cc1nnc2n1-c1c(F)cc(-c3cncc(C(F)(F)F)c3)cc1CC2` [Example 161, 9-fluoro-1-methyl-7-(5-trifluoromethyl-pyridin-3-yl)-4,5-dihydro-[1,2,4]triazolo [4,3-a]quinoline], the IC50 came out at 57.2 nM on human CYP11B2 [3] and 3570 nM at human CYP11B1 [4].

In the case of `CCc1c(F)cncc1-c1cc2c(c(F)c1F)-n1c(C)nnc1CC2` [Example 170, 7-(4-ethyl-5-fluoropyridin-3-yl)-8,9-difluoro-1-methyl-4,5-dihydro-[1,2,4]triazolo[4,3-a]quinoline], the IC50 at human CYP11B2 [3] was determined as 41 nM; at human CYP11B1 [4], 17300 nM.

`CCc1c(F)cncc1-c1cc(Cl)c2c(c1)CCc1nnc(C)n1-2` [Example 80, 9-chloro-7-(4-ethyl-5-fluoropyridin-3-yl)-1-methyl-4,5-dihydro[1,2,4]triazolo-[4,3-a]quinoline]: the IC50 came out at 7 nM on human CYP11B2 [1] and 3140 nM against human CYP11B1 [2].

As for “9-chloro-7-(5-chloro-4- methylpyridin-3-yl)-1- methyl-4,5-dihydro- [1,2,4]triazolo[4,3- a]quinoline [Example 93]”, the IC50 at human CYP11B2 [1] is 6 nM; at human CYP11B1 [2], 765 nM.

As for `COc1cncc(-c2cc(F)c3c(c2)CCc2nnc(C)n2-3)c1` [Example 158, 9-fluoro-7-(5-methoxy-pyridin-3-yl)-1-methyl-4,5-dihydro-[1,2,4]triazolo[4,3-a] quinoline], the IC50 on human CYP11B2 [3] was found to be 20.3 nM; on human CYP11B1 [4] it was 1810 nM.
